The numbers were not newly measured in patent US20080070991A1 (priority 2006, published 2008), which cites them from elsewhere.

The test system of this data set is stilbene synthase. Particulars: Barbera cell suspensions treated with 10 μm methyljasmonate.

Turning to `CC/C=C\CC1C(=O)CCC1CC(=O)OC` (stereo not shown) [methyljasmonate, Methyljasmonate], the “stilbene synthase expression (gel analysis)” value is reported as “up-regulation of the stilbene synthase”.
